{
  "source": "patent US5362634A",
  "about": "“Process for producing A83543 compounds” (DowElanco, priority 1991, dated 1994)",
  "key": {"[1]": {"tested_on": "first instar yellow fever mosquito larvae", "assay": "In vitro mosquito larvicide test, first instar", "conditions": "Aedes aegypti, 24 h, lowest concentration with 100% inhibition after 24 hr, microtiter plates; read-out: Minimal Inhibitory Concentration", "description": "(§1) The A83543 components were active against yellow fever mosquito (Aedes aegypti) larvae in standard in vitro mosquito larvicide tests."}, "[2]": {"tested_on": "neonate CBW (cotton bollworm) larvae", "assay": "Percent control of neonate CBW larvae by A83543 components, topical pipet method", "assay_type": "in vivo, Heliothis zea", "conditions": "24 h, read-out: Percent Control", "method": "Each test compound was formulated by dissolving the compound in an acetone/alcohol (1:1) mixture containing 23 g of \"Toximul R\" (sulfonate/nonionic emulsifier blend) and 13 g of \"Toximul S\" (sulfonate/nonionic emulsifier blend) per liter. These mixtures were then diluted with water to give the indicated concentrations.\nAdditional insects were evaluated using similar formulations and evaluation procedures, with the exceptions noted.\nAfter standard exposure periods, percent mortality was evaluated. The following abbreviations are used:\n^1 Treatments with the same letter in parentheses are similar at the\n^2 Topical pipet method with 20 larve/replicate and 4 replicates; one\nday between treatment and observation."}, "[3]": {"tested_on": "fourth instar yellow fever mosquito larvae", "assay": "whole plant or invertebrate", "set-up": "species or system Aedes aegypti", "conditions": "Aedes aegypti, 24 hr, read-out: Percent Control", "description": "as §1\n^a At 24 hr when treated at 0.312 ppm"}, "[4]": {"tested_on": "blow fly larvae (LBF)", "assay": "In vitro efficacy, exposure of LBF to chemically added serum samples", "description": "(§2) ^1 Percent insect mortality following 24 to 48 hrs. in vitro exposure\n(§3) to chemically added serum samples"}, "[5]": {"tested_on": "blow fly larvae (LBF)", "assay": "Guinea pig systemic test, blow fly larvae", "assay_type": "in vivo", "method": "(§4) Adult guinea pigs are used in this test system. The compounds to be tested are dissolved in aqueous polyvinyl pyrrolidone or in polyethylene glycol 200, and an appropriate amount of the solution is administered either orally or by intraperitoneal injection.\n(§5) Blood is drawn from the guinea pigs at 30 minutes except as noted, and the samples of blood are centrifuged. Dental wicks are saturated with the blood serum, and then exposed in Petri dishes to adult stable flies; blow fly larvae are exposed in test tubes. After 24 and 48 hours, the insects are examined, and the number of dead are counted. The results of the tests are recorded as the percent of the insects which are killed."}, "[6]": {"tested_on": "adult stable fly (ASF)", "assay": "In vitro efficacy, exposure of ASF to chemically added serum samples", "conditions": "Stomoxys calcitrans, read-out: Percent insect mortality", "description": "as §2, §3"}, "[7]": {"tested_on": "adult stable fly (ASF)", "assay": "Guinea pig systemic test, adult stable fly", "assay_type": "in vivo, Stomoxys calcitrans", "method": "as §4, §5"}, "[8]": {"conditions": "0.5 ppm, topical pipet, one day"}},
  "note": "Read-outs that look alike come from different tables or passages of the source.",
  "data": [
    {"smiles": "CC[C@H]1CCC[C@H](O[C@H]2CC[C@H](NC)[C@@H](C)O2)[C@@H](C)C(=O)C2=C[C@@H]3[C@@H](C=C[C@@H]4C[C@@H](O[C@@H]5O[C@@H](C)[C@H](OC)[C@@H](OC)[C@H]5OC)C[C@@H]34)[C@@H]2CC(=O)O1", "note": "[A83543B]", "values": [
      {"measurement": "MIC", "setting": "[1]", "result": 0.016, "unit": "mg/L"},
      {"measurement": "mortality at 0.5 ppm", "setting": "[2]; [8]", "result": 35, "unit": "%"},
      {"measurement": "mortality at 1 ppm", "setting": "[2]; 1 ppm, topical pipet, one day", "result": 80, "unit": "%"},
      {"measurement": "mortality at 5 ppm", "setting": "[2]; 5 ppm, topical pipet, one day", "result": 100, "unit": "%"},
      {"measurement": "mortality at 10 ppm", "setting": "[2]; 10 ppm, topical pipet, one day", "result": 100, "unit": "%"},
      {"measurement": "mortality at 0.312 ppm", "setting": "[3]", "result": 60, "unit": "%"}
    ]},
    {"smiles": "CC[C@H]1CCC[C@H](O[C@H]2CC[C@H](N)[C@@H](C)O2)[C@@H](C)C(=O)C2=C[C@@H]3[C@@H](C=C[C@@H]4C[C@@H](O[C@@H]5O[C@@H](C)[C@H](OC)[C@@H](OC)[C@H]5OC)C[C@@H]34)[C@@H]2CC(=O)O1", "note": "[A83543C]", "values": [
      {"measurement": "MIC", "setting": "[1]", "result": 0.031, "unit": "mg/L"},
      {"measurement": "mortality at 0.5 ppm", "setting": "[2]; [8]", "result": 5, "unit": "%"},
      {"measurement": "mortality at 1 ppm", "setting": "[2]; 1 ppm, topical pipet, one day", "result": 85, "unit": "%"},
      {"measurement": "mortality at 5 ppm", "setting": "[2]; 5 ppm, topical pipet, one day", "result": 93, "unit": "%"},
      {"measurement": "mortality at 10 ppm", "setting": "[2]; 10 ppm, topical pipet, one day", "result": 100, "unit": "%"},
      {"measurement": "mortality at 0.312 ppm", "setting": "[3]", "result": 60, "unit": "%"}
    ]},
    {"smiles": "CC[C@H]1CCC[C@H](O[C@H]2CC[C@H](N(C)C)[C@@H](C)O2)[C@@H](C)C(=O)C2=C[C@@H]3[C@@H](C=C(C)[C@@H]4C[C@@H](O[C@@H]5O[C@@H](C)[C@H](OC)[C@@H](OC)[C@H]5OC)C[C@@H]34)[C@@H]2CC(=O)O1", "note": "[A83543D]", "values": [
      {"measurement": "Percent insect mortality", "setting": "[4]; 0.312 ppm, 24 hr", "result": 25, "unit": "%"},
      {"measurement": "Percent insect mortality", "setting": "[4]; 0.312 ppm, 48 hr", "result": 25, "unit": "%"},
      {"measurement": "Percent insect mortality", "setting": "[4]; 0.625 ppm, 24 hr", "result": 50, "unit": "%"},
      {"measurement": "Percent insect mortality", "setting": "[4]; 0.625 ppm, 48 hr", "result": 75, "unit": "%"},
      {"measurement": "Percent insect mortality", "setting": "[4]; 1.25 ppm, 24 hr", "result": 80, "unit": "%"},
      {"measurement": "Percent insect mortality", "setting": "[4]; 1.25 ppm, 48 hr", "result": 90, "unit": "%"},
      {"measurement": "Percent insect mortality", "setting": "[4]; 2.5 ppm, 24 hr", "result": 90, "unit": "%"},
      {"measurement": "Percent insect mortality", "setting": "[4]; 2.5 ppm, 48 hr", "result": 100, "unit": "%"},
      {"measurement": "Percent insect mortality", "setting": "[4]; 5 ppm, 24 hr", "result": 90, "unit": "%"},
      {"measurement": "Percent insect mortality", "setting": "[4]; 5 ppm, 48 hr", "result": 100, "unit": "%"},
      {"measurement": "Percent insect mortality", "setting": "[4]; 10 ppm, 24 hr", "result": 100, "unit": "%"},
      {"measurement": "Percent insect mortality", "setting": "[4]; 10 ppm, 48 hr", "result": 100, "unit": "%"},
      {"measurement": "% Activity LBF", "setting": "[5]; 10 mg/kg IP, bled 30 min", "result": 0, "unit": "%"},
      {"measurement": "% Activity LBF", "setting": "[5]; 10 mg/kg IP, bled 5 hr", "result": 0, "unit": "%"},
      {"measurement": "% Activity LBF", "setting": "[5]; 10 mg/kg IP, bled 24 hr", "result": 0, "unit": "%"},
      {"measurement": "% Activity LBF", "setting": "[5]; 30 mg/kg IP, bled 30 min", "result": 0, "unit": "%"},
      {"measurement": "% Activity LBF", "setting": "[5]; 30 mg/kg IP, bled 5 hr", "result": 0, "unit": "%"},
      {"measurement": "% Activity LBF", "setting": "[5]; 30 mg/kg IP, bled 24 hr", "result": 0, "unit": "%"},
      {"measurement": "% Activity LBF", "setting": "[5]; 50 mg/kg IP, bled 30 min", "result": 75, "unit": "%"},
      {"measurement": "% Activity LBF", "setting": "[5]; 50 mg/kg IP, bled 5 hr", "result": 0, "unit": "%"},
      {"measurement": "% Activity LBF", "setting": "[5]; 50 mg/kg IP, bled 24 hr", "result": 25, "unit": "%"},
      {"measurement": "mortality at 0.312 ppm", "setting": "[6]; 24 hr", "result": 0, "unit": "%"},
      {"measurement": "mortality at 0.312 ppm", "setting": "[6]; 48 hr", "result": 0, "unit": "%"},
      {"measurement": "mortality at 0.625 ppm", "setting": "[6]; 24 hr", "result": 0, "unit": "%"},
      {"measurement": "mortality at 0.625 ppm", "setting": "[6]; 48 hr", "result": 60, "unit": "%"},
      {"measurement": "mortality at 1.25 ppm", "setting": "[6]; 24 hr", "result": 10, "unit": "%"},
      {"measurement": "mortality at 1.25 ppm", "setting": "[6]; 48 hr", "result": 90, "unit": "%"},
      {"measurement": "mortality at 2.5 ppm", "setting": "[6]; 24 hr", "result": 20, "unit": "%"},
      {"measurement": "mortality at 2.5 ppm", "setting": "[6]; 48 hr", "result": 100, "unit": "%"},
      {"measurement": "mortality at 5 ppm", "setting": "[6]; 24 hr", "result": 20, "unit": "%"},
      {"measurement": "mortality at 5 ppm", "setting": "[6]; 48 hr", "result": 90, "unit": "%"},
      {"measurement": "mortality at 10 ppm", "setting": "[6]; 24 hr", "result": 50, "unit": "%"},
      {"measurement": "mortality at 10 ppm", "setting": "[6]; 48 hr", "result": 100, "unit": "%"},
      {"measurement": "mortality at 0.5 ppm", "setting": "[2]; topical", "result": 58, "unit": "%"},
      {"measurement": "mortality at 1 ppm", "setting": "[2]; topical", "result": 90, "unit": "%"},
      {"measurement": "mortality at 5 ppm", "setting": "[2]; topical", "result": 100, "unit": "%"},
      {"measurement": "mortality at 10 ppm", "setting": "[2]; topical", "result": 100, "unit": "%"},
      {"measurement": "% Activity ASF", "setting": "[7]; 10 mg/kg IP, bled 30 min", "result": 0, "unit": "%"},
      {"measurement": "% Activity ASF", "setting": "[7]; 10 mg/kg IP, bled 5 hr", "result": 0, "unit": "%"},
      {"measurement": "% Activity ASF", "setting": "[7]; 10 mg/kg IP, bled 24 hr", "result": 10, "unit": "%"},
      {"measurement": "% Activity ASF", "setting": "[7]; 30 mg/kg IP, bled 30 min", "result": 0, "unit": "%"},
      {"measurement": "% Activity ASF", "setting": "[7]; 30 mg/kg IP, bled 5 hr", "result": 0, "unit": "%"},
      {"measurement": "% Activity ASF", "setting": "[7]; 30 mg/kg IP, bled 24 hr", "result": 0, "unit": "%"},
      {"measurement": "% Activity ASF", "setting": "[7]; 50 mg/kg IP, bled 30 min", "result": 0, "unit": "%"},
      {"measurement": "% Activity ASF", "setting": "[7]; 50 mg/kg IP, bled 5 hr", "result": 0, "unit": "%"},
      {"measurement": "% Activity ASF", "setting": "[7]; 50 mg/kg IP, bled 24 hr", "result": 0, "unit": "%"},
      {"measurement": "mortality at 0.312 ppm", "setting": "[3]", "result": 30, "unit": "%"}
    ]}
  ]
}
